Experimental data from patent publication EP2253324A1, “Use of a casein-derived peptide and compositions thereof as antihypertensive” (CONSEJO SUPERIOR DE INVESTIGACIONES CIENTIFICAS, priority 2009, dated 2010).
Read-outs that look alike come from different tables or passages of the source. Where no end group is shown, it is not given here.

Assays:
[1] = target: T1, Angiotensin-converting enzyme (Oryctolagus cuniculus, UniProt P12822); experiment: ACE-inhibitory activity, spectrophotometric assay (Cushman & Cheung, modified); assay type: biochemical; settings: synthetic peptides
T1 sequence (P12822 34-1310): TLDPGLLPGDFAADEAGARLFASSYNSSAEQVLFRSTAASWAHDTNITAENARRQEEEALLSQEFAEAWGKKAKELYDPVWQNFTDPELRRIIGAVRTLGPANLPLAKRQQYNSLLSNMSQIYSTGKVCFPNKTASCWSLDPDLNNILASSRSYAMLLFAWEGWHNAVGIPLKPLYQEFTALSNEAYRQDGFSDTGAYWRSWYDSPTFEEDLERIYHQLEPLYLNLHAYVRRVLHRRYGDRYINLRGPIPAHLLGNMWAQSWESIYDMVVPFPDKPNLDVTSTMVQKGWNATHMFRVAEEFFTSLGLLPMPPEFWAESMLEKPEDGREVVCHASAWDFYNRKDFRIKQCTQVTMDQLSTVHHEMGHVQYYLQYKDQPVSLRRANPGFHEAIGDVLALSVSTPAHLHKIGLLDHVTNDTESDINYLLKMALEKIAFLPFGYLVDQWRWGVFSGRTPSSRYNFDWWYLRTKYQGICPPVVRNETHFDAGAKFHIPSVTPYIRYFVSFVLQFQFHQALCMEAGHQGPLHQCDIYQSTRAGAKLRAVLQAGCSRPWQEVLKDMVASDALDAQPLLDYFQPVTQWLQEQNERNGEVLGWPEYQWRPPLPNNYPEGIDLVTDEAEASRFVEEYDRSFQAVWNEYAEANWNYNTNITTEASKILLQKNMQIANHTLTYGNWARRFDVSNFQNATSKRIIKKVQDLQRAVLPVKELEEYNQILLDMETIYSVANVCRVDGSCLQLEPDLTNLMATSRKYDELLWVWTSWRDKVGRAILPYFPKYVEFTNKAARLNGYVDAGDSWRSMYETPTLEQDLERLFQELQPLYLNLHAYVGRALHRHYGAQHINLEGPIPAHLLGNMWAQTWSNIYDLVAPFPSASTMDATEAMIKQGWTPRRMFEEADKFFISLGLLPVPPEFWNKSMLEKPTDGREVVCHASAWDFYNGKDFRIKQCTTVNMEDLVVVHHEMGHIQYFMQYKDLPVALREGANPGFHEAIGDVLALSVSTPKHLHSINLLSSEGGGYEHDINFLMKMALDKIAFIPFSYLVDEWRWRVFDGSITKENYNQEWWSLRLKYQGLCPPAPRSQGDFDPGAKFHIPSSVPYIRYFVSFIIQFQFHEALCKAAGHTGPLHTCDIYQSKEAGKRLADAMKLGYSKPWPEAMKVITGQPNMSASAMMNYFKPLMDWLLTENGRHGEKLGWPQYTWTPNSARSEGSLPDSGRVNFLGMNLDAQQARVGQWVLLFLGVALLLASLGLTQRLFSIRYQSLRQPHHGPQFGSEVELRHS
Procedure: ACE-inhibitory activity was measured by Cushman & Cheung 1971 (Biochemical Pharmacology, 20, 1637-1648) spectrophotometric assay with some modifications, as reported by (Quirós et al., 2007). For this purpose, protein concentration of the aliquots of the pepsin hydrolysate was determined by the Kjeldahl method. The protein content of the fractions collected from HPLC was estimated by the bicinchoninic acid assay (Pierce, Rockford, IL, USA) using bovine serum albumin, as standard, and peptide concentration of the chemically synthesized peptides was based in the dry weight of the peptides. Chemical synthesized peptides were purchased from GenScript Corp. (Piscataway, NJ, USA).

ACE = ACE (Homo sapiens, UniProt P12821); settings: cited from earlier work; for ACE-inhibitory activity: literature, in vitro; for IC50: literature values
Chain of ACE (P12821 30-1306, species assumed): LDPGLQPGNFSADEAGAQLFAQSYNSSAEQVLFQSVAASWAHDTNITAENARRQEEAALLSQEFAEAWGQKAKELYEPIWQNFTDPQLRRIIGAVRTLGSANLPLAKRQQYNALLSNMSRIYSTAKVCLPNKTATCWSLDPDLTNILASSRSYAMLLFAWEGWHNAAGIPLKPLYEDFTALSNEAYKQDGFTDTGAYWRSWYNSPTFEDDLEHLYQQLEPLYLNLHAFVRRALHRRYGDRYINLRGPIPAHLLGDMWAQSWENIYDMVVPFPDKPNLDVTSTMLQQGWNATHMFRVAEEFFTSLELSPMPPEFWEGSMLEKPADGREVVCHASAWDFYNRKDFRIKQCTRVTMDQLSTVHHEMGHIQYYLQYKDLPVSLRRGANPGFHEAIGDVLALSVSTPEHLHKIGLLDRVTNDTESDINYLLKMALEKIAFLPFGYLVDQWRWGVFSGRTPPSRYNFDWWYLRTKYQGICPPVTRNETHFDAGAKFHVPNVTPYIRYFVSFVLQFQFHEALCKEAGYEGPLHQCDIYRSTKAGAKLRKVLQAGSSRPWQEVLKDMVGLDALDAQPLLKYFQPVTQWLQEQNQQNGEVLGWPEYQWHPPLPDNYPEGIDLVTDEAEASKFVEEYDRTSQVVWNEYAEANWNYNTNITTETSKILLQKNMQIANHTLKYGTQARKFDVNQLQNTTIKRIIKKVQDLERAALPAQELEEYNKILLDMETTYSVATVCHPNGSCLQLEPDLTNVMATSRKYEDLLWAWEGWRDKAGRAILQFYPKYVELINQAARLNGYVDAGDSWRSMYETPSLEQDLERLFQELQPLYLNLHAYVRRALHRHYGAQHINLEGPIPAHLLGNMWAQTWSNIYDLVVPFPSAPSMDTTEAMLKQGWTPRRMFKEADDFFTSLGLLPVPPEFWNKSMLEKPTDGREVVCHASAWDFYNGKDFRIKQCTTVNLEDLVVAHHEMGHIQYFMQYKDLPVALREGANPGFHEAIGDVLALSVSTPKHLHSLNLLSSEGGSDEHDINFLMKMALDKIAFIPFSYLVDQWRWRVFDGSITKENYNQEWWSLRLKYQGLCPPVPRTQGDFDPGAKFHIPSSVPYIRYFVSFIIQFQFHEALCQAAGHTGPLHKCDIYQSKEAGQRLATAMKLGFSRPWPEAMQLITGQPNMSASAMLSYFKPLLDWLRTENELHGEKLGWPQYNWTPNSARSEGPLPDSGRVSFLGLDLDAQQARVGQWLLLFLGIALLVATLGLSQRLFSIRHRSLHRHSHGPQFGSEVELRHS

SHR = settings: literature; cited from earlier work
SHR rats = experiment: Systolic blood pressure in spontaneously hypertensive rats, tail-cuff method; assay type: in vivo; settings: single oral dose 5 mg kg^-1, followed up to 24 hours
Procedure: All procedures were carried out in accordance with conventional guidelines for experimentation with animals. Twelve-week old male SHR rats were used (Janvier, France); they were housed in groups of four per cage in a regulated environment with a 12 h light/dark cycle in a standard experimental laboratory of the Animal Experimentation Service of the Salamanca University (N°PAE SA001). The animals were deprived of solid diet 12 hours before experiments began but received a nutritive solution of 8% sucrose in 0.2% NaCl to avoid excessive dehydratation. The rats received a single dose of the synthesized peptides or zofenopril (5 mg kg^-1) dissolved in ultrapure water and the control group received the same volume of water. Systolic blood pressure (SBP) was measured in awake rats with an automated multichannel system, using the tail-cuff method with a photoelectric sensor (Niprem 546, Cibertec SA, Spain) as described in Guerrero et al., 2003 (Journal of Cardiovascular Pharmacology 42: 348-355). SBP was measured before administration, and also at 2, 4, 6, 8, 10 and 24 hours post-administration. The changes in SBP were expressed as the differences before and after administration of the different products. Unpaired student's t-test was used to compare groups.

human volunteers = settings: literature; cited from earlier work
[2] = mean ± standard error (n=3), read-out: IC50± SE

IC50 [1, 2] [µM] | Substance | IC50 (ACE) [µM] | other results
20.1 ± 1.25 | YQKFPQY [YQKFPQY] | – | IC50 ([1]; values in text, read-out: IC50): < 20 µM
476 ± 41.7 | FVAPFPEV [FVAPFPEV] | – | –
– | αs1-casein f(23-27): literature peptide with ACE-inhibitory activity but no hypotensive effect in SHR (FFVAP; UniProt P02662 38-42, looked up, fragment) | – | ACE-inhibitory activity (ACE): potent ACE-inhibitory activity; hypotensive effect in SHR (SHR): no hypotensive effect
363 ± 23.6 | VAPFPEVF [VAPFPEVF] | – | –
– | SEQ ID NO: 7: literature ACE-inhibitory sequence included in peptide SEQ ID NO: 6 (VTSTAV) | 52 | –
– | SEQ ID NO: 5: ACE-inhibitory peptide previously described in the literature, shares five residues with SEQ ID NO: 4 (ENLLRF) | 82.4 | –
– | β-lactoglobulin f(142-148): literature peptide with in vitro ACE-inhibitory activity (ALPMHIR; UniProt P02754 158-164, looked up, fragment) | – | effect in human volunteers (human volunteers): did not have effect; ACE-inhibitory activity (ACE): in vitro ACE-inhibitory activity
6.58 ± 0.5 | AYFYPEL [AYFYPEL] | – | IC50 ([1]; values in text, read-out: IC50): < 20 µM
– | SEQ ID NO: 3: αs1-CN peptide previously described as an ACE inhibitor (DAYPSGAW) | 98 | –
34.4 ± 2.22 | HLPLPLL [HLPLPLL] | – | –
– | SEQ ID O: 8: literature ACE-inhibitory peptide whose C-terminal tripeptide is LQY (FPQYLQY) | 14 | –

Substance | IC50 [1, 2] [µM] | IC50 (ACE) [µM] | other results
RYLGY [RYLGY] | 0.71 ± 0.08 | – | IC50 ([1]; values in text, read-out: IC50): < 20 µM; antihypertensive effect (change in SBP), in words (SHR rats): lowered SBP in a progressive and maintained manner
